Test results: the CheMixHub viscosity set

Test: xn = mol fraction of the nth substance listed

Cc1cccc(O)c1 + CC(=O)O
viscosity [mPa·s], 101 kPa
Details | x2 = 0.1684 | x2 = 0.313 | x2 = 0.4385 | x2 = 0.5485 | x2 = 0.6457 | x2 = 0.7321 | x2 = 0.8096 | x2 = 0.8794 | x2 = 0.9425
298.15 K | 8.835 | 6.522 | 5.086 | 4.131 | 3.438 | 2.895 | 2.425 | 1.996 | 1.602
308.15 K | 5.453 | 4.462 | 3.486 | 3.298 | 2.87 | 2.483 | 2.143 | 1.811 | 1.437
318.15 K | 4.444 | 3.818 | 3.302 | 2.942 | 2.618 | 2.31 | 1.945 | 1.625 | 1.22

N + CO
viscosity [mPa·s], 100 kPa
Details | 303 K | 313 K
x1 = 0.16 | 0.48 | 0.4
x1 = 0.23 | 0.48 | 0.39

CCCCC(CC)COP(=O)(O)OCC(CC)CCCC (centres undefined) + CCO
303.15 K, 101 kPa
Details | viscosity [mPa·s]
x1 = 0.0484 | 1.909
x1 = 0.086 | 2.633
x1 = 0.1497 | 3.874
x1 = 0.246 | 5.98
x1 = 0.3456 | 8.285
x1 = 0.4132 | 9.819
x1 = 0.5228 | 12.07
x1 = 0.6182 | 13.82
x1 = 0.7125 | 15.38
x1 = 0.8312 | 17.13
x1 = 0.9224 | 18.43

C[N+](=O)[O-] + CCOC(C)=O
298.15 K, 101 kPa
Details | viscosity [mPa·s]
x1 = 0.1688 | 0.4555
x1 = 0.3141 | 0.4808
x1 = 0.4395 | 0.5046
x1 = 0.55 | 0.526
x1 = 0.6469 | 0.5465
x1 = 0.733 | 0.5651
x1 = 0.8102 | 0.5828
x1 = 0.8801 | 0.5995
x1 = 0.9429 | 0.6154

ClC1CCCCC1 + C1CCCCC1
viscosity [mPa·s], 101.3 kPa
Details | x2 = 0.095 | x2 = 0.2004 | x2 = 0.2999 | x2 = 0.3989 | x2 = 0.4989 | x2 = 0.5993 | x2 = 0.6986 | x2 = 0.8004 | x2 = 0.9006
298.15 K | 1.485 | 1.394 | 1.315 | 1.241 | 1.172 | 1.106 | 1.046 | 0.9893 | 0.9379
313.15 K | 1.153 | 1.086 | 1.025 | 0.9696 | 0.9164 | 0.8667 | 0.821 | 0.7771 | 0.7392
